In patent EP4647071A1, “MITOCHONDRIAL COMPLEX I MODULATOR FOR USE IN THE TREATMENT OF ARTHRITIS” (Istesso Therapeutics Limited, priority 2024, dated 2025):
Marks after values point to notes of the source that are not given here.

Legend:
[1] = system: C-reactive protein (CRP); assay: C-reactive protein inflammatory biomarker, clinical study; type: in vivo, human; conditions: 12 weeks
[2] = system: rheumatoid factor; assay: Rheumatoid factor inflammatory biomarker, clinical study; type: in vivo, human; conditions: 12 weeks
Excerpt: These structural changes are accompanied by a reduction in the acute phase reactant, C-reactive protein (CRP) and other inflammatory markers such as rheumatoid factor (Table 4). Table 3. Effect of MCIM compounds on damage indicators. * indicates statistical significance, p<0.05. a p = 0.1

C[C@]1(O)CC[C@H](NS(=O)(=O)c2ccc(-c3ccc(Cl)cc3C#N)cc2)CC1 [HMC-C-01-A]
CRP- mean, Change from baseline ([1]; 5 mg once daily): 0.88 (18.4)
CRP- median, Change from baseline ([1]; 5 mg once daily): -0.20
CRP- mean, Change from baseline ([1]; 20 mg once daily): -4.13 (20.6)
CRP- median, Change from baseline ([1]; 20 mg once daily): -0.10
CRP- mean, Change from baseline ([1]; 40 mg once daily, p<0.05): -5.73 (27.7) *
CRP- median, Change from baseline ([1]; 40 mg once daily, p<0.05): -2.50 *
Rheumatoid factor, mean, Change from baseline ([2]; 5 mg once daily): 6.8 (80.9)
Rheumatoid factor, mean, Change from baseline ([2]; 20 mg once daily): -5.0 (60.4)
Rheumatoid factor, mean, Change from baseline ([2]; 40 mg once daily): -11.3 (88.0)
